Experimental data published in ChEMBL document CHEMBL6153083, “Synthesis, Structural Modification, and Antismall Cell Lung Cancer Activity of 3-Arylisoquinolines with Dual Inhibitory Activity on Topoisomerase I and II” (J Med Chem, 2025).
Activity calls are given as the source filed them. The rule behind the calls is not given here.

Legend:
[1] = Inhibition of PI3K/AKT/mTOR signalling pathway in human NCI-H1048 cells assessed as decrease in AKT level at 1 to 8 uM incubated for 48 hrs by Western blot analysis; format: cell-based; settings: dose 1-8 µM
NCI-H1048 = assay: Induction of mitochondrial dysfunction in human NCI-H1048 cells assessed as increase in ROS level at 1.75 to 14 uM incubated for 48 hrs by DCFH-DA staining based flow cytometry; format: functional, cell-based; settings: dose 1.75-14 µM

| SMILES | inhibition [1] | Activity (NCI-H1048) |
| --- | --- | --- |
| CC1CC(C)CN(Cc2cc3c(cc2-c2cc4ccc5c(c4cn2)OCO5)OCO3)C1 (configuration not stated) | Active |  |
| CCC1CCCC(C)N1Cc1cc2c(cc1-c1cc3ccc4c(c3cn1)OCO4)OCO2 (configuration not stated) |  | Active |
